Values joined by “and” are separate entries in the source; they are usually repeats but may differ in a detail not shown here. Identical values can stand only once. Like-named read-outs stand apart in the source and are kept apart here.

The source of these data is patent US5756813A, “Hindered aromatic ester compounds useful as anti-viral agents” (Uniroyal Chemical Ltd/Uniroyal Chemical Ltee, priority 1996, dated 1998).

The subject of test [1] is HIV-1. The experiment in a line: NCI in vitro anti-HIV screen: reduction of HIV-1 cytopathic effect in T4 lymphocytes (CEM cell line), XTT/formazan readout. The settings on record: replicate tests; for TI50 (therapeutic index, IC50/EC50): calculated as IC50/EC50, CEM cells. The format is cell-based, HIV-1 (in human cell line CEM). On the procedure: Representative compounds of this invention were tested for anti-viral activity by subjecting them to standard National Cancer Institute ("NCI") in vitro screening procedures. Two blanks were run with each test. The NCI test for agents active against HIV is designed to detect agents acting at any stage of the virus reproduction cycle.
In the test assay, small amounts of HIV are added to T4 lymphocyte cells. The assay measures the amount of T4 lymphocytes "killed" by HIV cytolysis. Since a complete cycle of viral reproduction is necessary to "kill" the T4 lymphocyte cells, agents that interfere with viral reproduction will protect the cells from cytolysis.
The NCI system is automated in several features to accomodate large numbers of candidate agents and is generally designed to detect anti-HIV activity. […] All tests are compared with at least one positive (AZT-treated) control done at the same time under identical conditions.
(§1) 1) The test compound was dissolved in dimethyl sulfoxide and diluted 1:100 in cell culture medium before serial half-log10 dilutions were prepared. T4 lymphocytes (CEM cell line) were then added to the cell culture medium, and, finally, after a brief interval, HIV-1 was added, resulting in a 1:200 final dilution of the test compound. Uninfected cells in the cell culture medium containing the test compound (i.e., minus HIV-1) were used as a toxicity control, and infected cells in the cell culture medium without the test compound and uninfected cells in the cell culture medium without the test compound, were used as basic controls.
(§2) 2) The cultures were incubated at 37° C. in a 5% carbon dioxide atmosphere for 6 days.
(§3) 3) The tetrazolium salt, XTT, was added to all wells, and the cultures were then incubated to allow formazan color development by viable cells.
(§4) 4) Individual wells were analyzed spectrophotometrically to quantitate formazan production, and were also viewed microscopically for detection of viable cells and confirmation of protective activity.
(§5) 5) Virus-infected cells exposed to the test compound were compared with noninfected cells exposed to the test compound, and with other appropriate controls (infected cells not exposed to the test compound and noninfected cells not exposed to the test compound, wells containing only the test compound in the cell culture medium, and so on) on the same plate. These are the first and second blanks described below.
6) Data were reviewed in comparison with other tests done at the same time and a determination concerning activity was made. In the first blank, HIV and T4 lymphocytes in cell culture medium, were incubated together to measure the infectivity of the virus. The viability of the cells was measured after holding for six or seven days. In an "effective" test, most cells were infected before the holding period was complete.
Finally, the protective effects of the test compounds were measured. Each cell culture and test compound were incubated with the virus and the viability of the cells was measured as a function of compound concentration after incubation for six or seven days. The concentration of the test compound that results in 50% "control," i.e., a 50% reduction of the viral cytopathic effect, is defined as its EC50. The therapeutic index TI50 was calculated as IC50 /EC50.
Concentrations of test compounds required for between 20 and 50% reduction of the viral cytopathic effect can also be determined. Such compounds are classified as moderately active.
(§6) The compounds were tested to determine their reduction of HIV cytopathic effect on the human cell line CEM. Tests were done by innoculating these cell lines in-well (IW), i.e., the test compound and CEM cells were mixed on a test plate and the virus was added a short time later.

In test [2] the test system is T4 lymphocytes (CEM cell line). Briefly: Toxicity to uninfected T4 lymphocytes (CEM cell line): 50% inhibition of cell growth (second blank). The format is cell-based, human. The settings on record: uninfected CEM cells, no HIV-1, cytotoxicity, replicate tests, read-out: IC50 (concentration that results in 50% inhibition of cell growth). Here is the method: as §1, §2, §3, §4, §5
In the second blank, the T4 lymphocytes in cell culture medium and the test compound (with no HIV-1) were incubated together to measure the toxicity of the drug to the cellline. The viability of the cells was measured as a function of concentration of the compound, after incubation for seven days. The concentration of the test compound that results in 50% inhibition of cell growth is defined as its IC50.
as §6

Where [3] appears, read: HIV-1 infected CEM cells, in-well (IW) inoculation, six or seven days, read-out: EC50 (concentration that results in 50% reduction of the viral cytopathic effect).
The mark [4] stands for this setting: Human immunodeficiency virus 1, CCRF-CEM, 168 h, HIV-1 infected CEM cells, in-well (IW) inoculation, six or seven days, read-out: EC50 (concentration that results in 50% reduction of the viral cytopathic effect).

`CC1=C(C(=O)Nc2ccc(Cl)c(C(=O)OC3CCCCC3C)c2)SCCO1` (stereo not drawn) [Compound 6]: the “TI50 (therapeutic index, IC50/EC50)” value in test [1] is > 1 and > 18 and 19 and 18. Besides, the IC50 in test [2] (Homo sapiens, CCRF-CEM) is greater than 24 µM; in test [2] it was 14 µM and 20 µM.

As to `Cc1occc1C(=S)Nc1ccc(Cl)c(C(=O)OC(C)C2CC2)c1` (stereo not drawn) [Compound 16], in test [1], the “TI50 (therapeutic index, IC50/EC50)” value is > 440 and > 240 and > 1600. Besides, the IC50 in test [2] (Homo sapiens, CCRF-CEM) was greater than 20 µM.

`CC1CCC(OC(=O)c2cc(NC(=S)c3ccccc3)ccc2Cl)C1` (stereo not drawn) [Compound 8]: the EC50 in test [1] (setting [3]) is 0.195 µM and 0.184 µM and 0.181 µM; in test [1] (setting [4]) it was 0.213 µM. The “TI50 (therapeutic index, IC50/EC50)” value in test [1] is 68 and 69 and 80 and 72. In addition, the IC50 is 14.6 µM in test [2] (Homo sapiens, CCRF-CEM); 13.5 µM and 14.8 µM and 13.1 µM in test [2].

In the case of `CC(OC(=O)c1cc(NC(=S)c2ccccc2)ccc1Cl)C1CC1` (stereo not drawn) [Compound 13], in test [1] (setting [3]), the EC50 was 2.1 µM and 2.2 µM and 0.79 µM and 0.72 µM. For the same compound, the “TI50 (therapeutic index, IC50/EC50)” value in test [1] is > 18 and > 17 and > 48 and > 52. Besides, the IC50 in test [2] (Homo sapiens, CCRF-CEM) is greater than 38 µM.

For the compound `Cc1ccccc1C(=O)Nc1ccc(Cl)c(C(=O)OC2CCCCC2C)c1` (stereo not drawn) [Compound 10], the EC50 in test [1] (setting [3]) is 2.39 µM and 1.75 µM and 1.3 µM and 1.13 µM. Further, the “TI50 (therapeutic index, IC50/EC50)” value in test [1] was 8 and 10 and 13 and 15. Also, the IC50 in test [2] (Homo sapiens, CCRF-CEM) was 19.7 µM; in test [2], 16.9 µM and 17.1 µM and 16.6 µM.

As for `CC(OC(=O)c1cc(NC(=O)c2cccn2C)ccc1Cl)C1CC1` (stereo not drawn) [Compound 17], the EC50 in test [1] (setting [3]) is 5.3 µM and 9.7 µM and 5 µM and 4.1 µM. Further, in test [1], the “TI50 (therapeutic index, IC50/EC50)” value was > 10 and > 6 and > 11 and > 13. The IC50 in test [2] (Homo sapiens, CCRF-CEM) was greater than 54 µM.

Turning to `CC1(OC(=O)c2cc(NC(=S)c3ccccc3)ccc2Cl)CCCC1` [Compound 2], the EC50 in test [1] (setting [3]) was 0.216 µM and 0.232 µM and 0.398 µM and 0.598 µM. The “TI50 (therapeutic index, IC50/EC50)” value in test [1] was 137 and 124 and 78 and 54. For the same compound, the IC50 in test [2] (Homo sapiens, CCRF-CEM) was 29.4 µM; in test [2], 28.8 µM and 31 µM and 32 µM.

For `CC1CCCCC1OC(=O)c1cc(NC(=O)c2ccccc2)ccc1Cl` (stereo not drawn) [Compound 9, 2-methylcyclohexyl 2-chloro-5-(benzoylamino)benzoate], the EC50 is 4.65 µM in test [1] (Human immunodeficiency virus 1, CCRF-CEM, 168 h, read-out: EC50 (concentration that results in 50% reduction of the viral cytopathic effect), HIV-1 infected CEM cells, in-well (IW) inoculation, six or seven days); 4.47 µM and 2.37 µM in test [1] (read-out: EC50 (concentration that results in 50% reduction of the viral cytopathic effect), HIV-1 infected CEM cells, in-well (IW) inoculation, six or seven days). For the same compound, in test [1], the “TI50 (therapeutic index, IC50/EC50)” value was 31 and 28 and 65. In addition, the IC50 in test [2] (Homo sapiens, CCRF-CEM) was 14.2 µM; in test [2], 12.6 µM and 15.3 µM and 14.5 µM.

As for `CC1CCCCC1OC(=O)c1cc(NC(=S)c2ccccc2)ccc1Cl` (stereo not drawn) [Compound 5], the EC50 in test [1] (setting [3]) is 0.175 µM and 0.199 µM and 0.0791 µM and 0.126 µM. In addition, in test [1], the “TI50 (therapeutic index, IC50/EC50)” value is 92 and 71 and 172 and 107. In addition, the IC50 in test [2] (Homo sapiens, CCRF-CEM) is 16 µM; in test [2] it was 14.1 µM and 13.6 µM and 13.4 µM.

With `Cc1occc1C(=O)Nc1ccc(Cl)c(C(=O)OC(C)C2CCCC2)c1` (stereo not drawn) [Compound 14], in test [1] (setting [3]), the EC50 was 0.84 µM and 1.1 µM and 0.77 µM and 2.3 µM and 1.7 µM. For the same compound, the “TI50 (therapeutic index, IC50/EC50)” value in test [1] was 9 and > 13 and > 18 and > 6 and > 8. The IC50 in test [2] (Homo sapiens, CCRF-CEM) was 7.7 µM; in test [2], greater than 14 µM.

Regarding `CC1CCCC1OC(=O)c1cc(NC(=S)c2ccccc2)ccc1Cl` (stereo not drawn) [Compound 3], the EC50 in test [1] (setting [3]) is 0.0867 µM and 0.0783 µM and 0.101 µM; in test [1] (setting [4]), 0.0967 µM. In test [1], the “TI50 (therapeutic index, IC50/EC50)” value was 146 and 141 and 180 and 136. The IC50 in test [2] (Homo sapiens, CCRF-CEM) was 14.1 µM; in test [2], 12.2 µM and 13.8 µM.

Take `CC1CCCC(C)C1OC(=O)c1cc(NC(=S)c2ccccc2)ccc1Cl` (stereo not drawn) [Compound 4]: in test [1] (setting [3]), the EC50 is 0.94 µM and 2.1 µM and 0.95 µM and 0.37 µM. In test [1], the “TI50 (therapeutic index, IC50/EC50)” value is > 14 and > 6 and > 35. In test [2] (Homo sapiens, CCRF-CEM), the IC50 is greater than 13 µM.

Turning to `CC1CCC(OC(=O)c2cc(NC(=O)c3ccccc3)ccc2Cl)C1` (stereo not drawn) [Compound 7], the EC50 in test [1] (setting [3]) is 5.8 µM and 3.6 µM and 6.1 µM; in test [1] (setting [4]), 5.7 µM. Besides, the “TI50 (therapeutic index, IC50/EC50)” value in test [1] was 3 and 2 and 5. Besides, the IC50 in test [2] (Homo sapiens, CCRF-CEM) is 19 µM; in test [2], 11 µM and 17 µM and 14 µM.

As for `CC1(OC(=O)c2cc(NC(=O)c3ccccc3)ccc2Cl)CCCC1` [Compound 1], the EC50 was 11.5 µM and 15.2 µM and 17.6 µM in test [1] (setting [3]); 17.3 µM in test [1] (setting [4]). The “TI50 (therapeutic index, IC50/EC50)” value in test [1] is 2 and 4. The IC50 in test [2] (Homo sapiens, CCRF-CEM) was 41.8 µM; in test [2], 49.5 µM and 32.7 µM and 32 µM.

Consider `Cc1occc1C(=O)Nc1ccc(Cl)c(C(=O)OC(C)C2CC2)c1` (stereo not drawn) [Compound 15], for which, in test [1] (setting [3]), the EC50 was 1.4 µM and 2.5 µM and 1.1 µM. The “TI50 (therapeutic index, IC50/EC50)” value in test [1] was > 14 and > 8 and > 19. Moreover, the IC50 in test [2] (Homo sapiens, CCRF-CEM) was greater than 21 µM.

Take `CC(OC(=O)c1cc(NC(=S)c2ccccc2)ccc1Cl)C1CCCC1` (stereo not drawn) [Compound 12]: the EC50 is 0.23 µM and 0.27 µM in test [1] (setting [3]); 0.28 µM in test [1] (setting [4]). In addition, in test [1], the “TI50 (therapeutic index, IC50/EC50)” value was > 48 and > 60 and > 50. For the same compound, the IC50 in test [2] (Homo sapiens, CCRF-CEM) was greater than 14 µM.

Turning to `Cc1ccccc1C(=S)Nc1ccc(Cl)c(C(=O)OC2CCCCC2C)c1` (stereo not drawn) [Compound 11], the EC50 in test [1] (setting [3]) was 5.4 µM and 4.4 µM; in test [1] (setting [4]), 5 µM. The “TI50 (therapeutic index, IC50/EC50)” value in test [1] is recorded as greater than 2. Further, the IC50 in test [2] (Homo sapiens, CCRF-CEM) was greater than 9.4 µM.
